Test results as given in EP4471048A1, “PEPTIDE INHIBITORS OF INTERLEUKIN-23 RECEPTOR” (Zealand Pharma A/S, priority 2023, dated 2024).
Read-outs that look alike come from different tables or passages of the source. *1 amine or outer side, *2 acyl side, *3 side chain or, on linkers, in order; H or OH if unused. Where a SMILES comes first, the peptide text is derived from it. Bridges are numbered along the chain shown (N, C = ends). [ ]: non-standard residue; d: D form. hAad = O=C([C@H](CCCCC(=O)[*:3])N[*:1])[*:2]; X7 = O=C(C[C@H](CCCN[*:3])N[*:2])[*:1]; 2Nal = N[C@@H](Cc1ccc2ccccc2c1)C(=O)O; AEF = NCCOc1ccc(C[C@H](N)C(=O)O)cc1; 3Pal = N[C@@H](Cc1cccnc1)C(=O)O; Aad = N[C@@H](CCCC(=O)O)C(=O)O; αMeL = CC(C)C[C@](C)(N)C(=O)O; dOrn = NCCC[C@@H](N)C(=O)O; dDab = NCC[C@@H](N)C(=O)O; Dab = NCC[C@H](N)C(=O)O

What was measured:
[1] = target: T1, human IL-23R (Homo sapiens, UniProt Q5VWK5); assay: biochemical; settings: for Emax: read-out: % displacement (hIL-23R NIuc)
T1 sequence (Q5VWK5 22-629): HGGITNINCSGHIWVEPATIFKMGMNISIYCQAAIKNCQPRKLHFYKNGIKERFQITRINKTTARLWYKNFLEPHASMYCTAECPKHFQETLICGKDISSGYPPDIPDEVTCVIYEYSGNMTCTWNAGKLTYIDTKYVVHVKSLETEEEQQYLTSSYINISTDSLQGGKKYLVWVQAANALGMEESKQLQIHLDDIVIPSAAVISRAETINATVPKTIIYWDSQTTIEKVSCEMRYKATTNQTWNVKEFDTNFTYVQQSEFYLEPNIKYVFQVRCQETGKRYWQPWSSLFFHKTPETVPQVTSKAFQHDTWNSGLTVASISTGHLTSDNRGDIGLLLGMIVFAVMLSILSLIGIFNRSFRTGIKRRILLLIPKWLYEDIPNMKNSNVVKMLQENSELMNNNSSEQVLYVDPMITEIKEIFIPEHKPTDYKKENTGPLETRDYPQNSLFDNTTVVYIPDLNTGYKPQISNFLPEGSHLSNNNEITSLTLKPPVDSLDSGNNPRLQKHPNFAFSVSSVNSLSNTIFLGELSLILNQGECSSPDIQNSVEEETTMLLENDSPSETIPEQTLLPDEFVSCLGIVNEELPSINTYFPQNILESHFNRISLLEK
Summary of the method: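 Membranes from HEK293 cells stably expressing Nluc-tagged human IL-23R were incubated 2 h at room temperature with test compound and a fluorophore-labelled tracer. After substrate addition, loss of BRET (TAMRA over luciferase emission) reported tracer displacement. A 4PL fit gave IC50 values.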

[2] = target: IL-23 mediated signalling (Homo sapiens, UniProt Q5VWK5); assay: Functional inhibition of IL-23 mediated STAT3 signalling (phospho-STAT3 MSD) in DB cells; type: cell-based; settings: for Emax: read-out: hIL-23 (pSTAT3) antagonist % inhibition
Text: Upon binding of IL-23, the IL-23R forms a heterodimer signalling complex together with IL-12R β1, which through the JAK2/STAT3 pathway promotes phosphorylation of STAT3 to form phospho-STAT3.
For compounds tested in this assay, the response was normalized relative to control values to calculate the IC50 and maximal inhibitory response from a concentration response curve of the compound in presence of a fixed concentration of human IL-23.
The assay procedure was as follows. […] Following preincubation of the DB cells with inhibitor for 15 min in a cell incubator (37 °C, 5% CO2), 20 µL of the prepared 3X the EC80 of hIL-23 solution was added to each well and incubated for 90 min in a cell incubator (37 °C, 5% CO2). For some wells buffer only or IL-23 only corresponding to the EC80 was added to obtain readouts needed for normalization. To terminate the assay, the plate was spun at 1000 G for 5 min to pellet cells, the supernatant removed using an 8-channel manual pipette, and then added 50 µL/well Complete Lysis Buffer from the MSD STAT3 kit (Cat# K150SVD, Mesoscale) to the cell pellet. To completely lyse cells to release phospho-STAT3 for detection, the plate was shaken for 10 min at room temperature (500 rpm) sealed with aluminium foil and placed at -80 °C for a minimum of 15 min. Detection of the phospho-STAT3 level in the cell lysate from the individual wells was determined using the MSD STAT3 kit (Cat# K150SVD, Mesoscale) and read on a Meso QuickPlex SQ 120 plate reader (Mesoscale).
For data analysis raw data counts from the Meso QuickPlex SQ 120 plate reader were normalized relative to the response by the EC80 of h1L-23 alone (no compound added) and the buffer level. Compound potency (IC50) and maximal inhibitory response (% inhibition) were estimated by computer-aided curve fitting using a 4-parameter logistic (4PL) nonlinear model. […] Table 3-2: hIL-23 (pSTAT3) antagonist IC50 and % inhibition

[3] = Peptide stability in simulated intestinal fluid (SIF); type: in vitro ADME; settings: pig, 37 °C, porcine pancreatin; for remaining at 1 h, 10 µM: pH 6.8, 1 h; for remaining at 4 h, 10 µM: pH 6.8, 4 h, read-out: SIF (% remaining 4 h)
Summary of the method: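 Peptides were incubated at 37 °C with gentle shaking in pH 6.8 potassium phosphate SIF containing porcine pancreatin (10 g/L). Supernatants were analysed by LC-HRMS. Percent remaining at each timepoint, including 4 h, was calculated relative to time zero from absolute peak areas.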

[4] = Peptide stability in simulated gastric fluid (SGF); type: in vitro ADME; settings: pig, simulated gastric fluid (SGF) with porcine pepsin (3.2 g/L), pH 1.2, 10 µM, 37 °C, porcine pepsin; for remaining at 1 h, 10 µM: pH 1.2, 1 h, read-out: SGF (% remaining 1 h); for remaining at 4 h, 10 µM: pH 1.2, 4 h, read-out: SGF (% remaining 4 h)
Summary of the method: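 Peptide incubated at 37 °C with gentle shaking in SGF (NaCl, pH 1.2). Samples centrifuged, diluted and analysed by LC-HRMS; percent remaining at each timepoint from absolute peak areas relative to time zero, with 4 h as the reference point.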

[5] = Table 3-2, maximal inhibitory response, DB cells, hIL-23 at EC80
[6] = Table 3-2, DB cells, hIL-23 at EC80, read-out: hIL-23 (pSTAT3) antagonist IC50

| Compound | IC50 [1] | Emax [1] | Emax [2, 5] | % displacement (hIL-23R NIuc) [1] | other results |
| --- | --- | --- | --- | --- | --- |
| CC(C)C[C@]1(C)NC(=O)[C@H](Cc2c[nH]c3ccccc23)NC(=O)[C@H](Cc2c[nH]c3ccccc23)NC(=O)[C@@H]2CSCC(=O)CSC[C@H](NC(=O)[C@H]([C@@H](C)O)NC(=O)[C@@H](NC(=O)CN)CSCC(=O)CSC[C@@H](C(=O)N[C@@H](CO)C(N)=O)NC1=O)C(=O)N[C@@H](Cc1c[nH]c3ccccc13)C(=O)N[C@@H](CCC(=O)O)C(=O)N2 (single isomer, unassigned) [I5 (isomer 3), H-GC(1a)TC(2a)WEC(2a)WW[2-Me-Leu]C(1a)S-[NH2], reference compound] | 90 nM | – | – | – | Emax ([2]; DB): 91% |
| CC(C)C[C@]1(C)NC(=O)[C@H](Cc2ccc3ccccc3c2)NC(=O)[C@H](Cc2ccc(OCCN)cc2)NC(=O)[C@@H]2CCC(=O)N[C@@H](CCCCNC(=O)CC[C@@H](C(=O)N[C@@H](CCN)C(=O)N[C@@H](Cc3cccnc3)C(N)=O)NC1=O)C(=O)N[C@@H]([C@@H](C)O)C(=O)N[C@@H](C(C)C)C(=O)N[C@@H](Cc1c[nH]c3ccccc13)C(=O)N[C@@H](CCC(N)=O)C(=O)N2 [Compound 2, K(1c)(6c)^†TVWQE(6c)[Y(2-aminoethoxy)][2-Nal][2-Me-Leu]E(1c)[Dab][3-(3-Pyridyl)-Ala]-[NH2]] (KTVWQE[AEF][2Nal][αMeL]E[Dab][3Pal]-NH2; lactam 1-10, N-6) | 0.021 nM | 100% | 99% | – | IC50 ([2]; SAR tables 2-1 to 2-7, DB cells, hIL-23 at EC80, read-out: IC50 (pSTAT3)): 0.11 nM |
| CC(C)C[C@]1(C)NC(=O)[C@H](Cc2ccc3ccccc3c2)NC(=O)[C@H](Cc2ccc(OCCN)cc2)NC(=O)[C@@H]2CC(=O)N[C@H](CCCCNC(=O)CC[C@@H](C(=O)N[C@@H](CCN)C(=O)N[C@@H](Cc3cccnc3)C(N)=O)NC1=O)C(=O)N[C@@H]([C@@H](C)O)C(=O)N[C@@H](C(C)C)C(=O)N[C@@H](Cc1c[nH]c3ccccc13)C(=O)N[C@@H](CCC(N)=O)C(=O)N2 [Compound 3, [{d}K](1c)(6c)^†TVWQD(6c)[Y(2-aminoethoxy)][2-Nal][2-Me-Leu]E(1c)[Dab][3-(3-Pyridyl)-Ala]-[NH2]] ([dK]TVWQD[AEF][2Nal][αMeL]E[Dab][3Pal]-NH2; lactam 1-10, N-6) | 0.091 nM | 105% | 101% | – | IC50 [2, 6]: 1.5 nM |
| CC(C)C[C@]1(C)NC(=O)[C@H](Cc2ccc3ccccc3c2)NC(=O)[C@H](Cc2ccc(OCCN)cc2)NC(=O)[C@@H]2CCC(=O)N[C@H](CCCNC(=O)CCC[C@@H](C(=O)N[C@@H](CCN)C(=O)N[C@@H](Cc3cccnc3)C(N)=O)NC1=O)C(=O)N[C@@H]([C@@H](C)O)C(=O)N[C@@H](C(C)C)C(=O)N[C@@H](Cc1c[nH]c3ccccc13)C(=O)N[C@@H](CCC(N)=O)C(=O)N2 [Compound 6, [{d}Orn](1c)(6c)^†TVWQE(6c)[Y(2-aminoethoxy)][2-Nal][2-Me-Leu][hGlu](1c)[Dab][3-(3-Pyridyl)-Ala]-[NH2]] ([dOrn]TVWQE[AEF][2Nal][αMeL][Aad][Dab][3Pal]-NH2; lactam 1-10, N-6) | 0.022 nM | – | 104% | 104% | – |
| CC(C)C[C@]1(C)NC(=O)[C@H](Cc2ccc3ccccc3c2)NC(=O)[C@H](Cc2ccc(OCCN)cc2)NC(=O)[C@@H]2CCC(=O)N[C@H](CCNC(=O)CCCC[C@@H](C(=O)N[C@@H](CCN)C(=O)N[C@@H](Cc3cccnc3)C(N)=O)NC1=O)C(=O)N[C@@H]([C@@H](C)O)C(=O)N[C@@H](C(C)C)C(=O)N[C@@H](Cc1c[nH]c3ccccc13)C(=O)N[C@@H](CCC(N)=O)C(=O)N2 [Compound 7, [{d}Dab](1c)(6c)^†TVWQE(6c)[Y(2-aminoethoxy)][2-Nal][2-Me-Leu][2-Amino-6-carboxyhexanoyl](1 c)[Dab][3-(3-Pyridyl)-Ala]-[NH2]] ([dDab]TVWQE[AEF][2Nal][αMeL][hAad][Dab][3Pal]-NH2; lactam 1-10, N-6) | 0.017 nM | – | 99% | 104% | – |
| CC(C)C[C@]1(C)NC(=O)[C@H](Cc2ccc3ccccc3c2)NC(=O)[C@H](Cc2ccc(OCCN)cc2)NC(=O)[C@@H]2CCC(=O)N[C@@H](CCCNC(=O)CC[C@@H](C(=O)N[C@@H](CCN)C(=O)N[C@@H](Cc3cccnc3)C(N)=O)NC1=O)CC(=O)N[C@@H]([C@@H](C)O)C(=O)N[C@@H](C(C)C)C(=O)N[C@@H](Cc1c[nH]c3ccccc13)C(=O)N[C@@H](CCC(N)=O)C(=O)N2 [Compound 12, [bLys](1c)(6c)^†TVWQE(6c)[Y(2-aminoethoxy)][2-Nal][2-Me-Leu]E(1c)[Dab][3-(3-Pyridyl)-Ala]-[NH2]] (TVWQE[AEF][2Nal][αMeL]E[Dab][3Pal]-NH2; linker N-5-9 via X7) | – | – | 100% | 104% | – |
| CC[C@H](C)[C@@H]1NC(=O)[C@@H]2CCCCNC(=O)CC[C@@H](C(=O)N[C@@H](CCN)C(=O)N[C@@H](Cc3cccnc3)C(N)=O)NC(=O)C(C)(C)NC(=O)[C@H](Cc3ccc4ccccc4c3)NC(=O)[C@H](Cc3ccc(C)cc3)NC(=O)[C@H](CCC(=O)N2)NC(=O)[C@H](CCC(N)=O)NC(=O)[C@H](Cc2c[nH]c3ccccc23)NC(=O)[C@H](C(C)C)NC1=O [Compound 17, K(1c)(6c)^†IVWQE(6c)[F(4-Me)][2-Nal][Aib]E(1c)[Dab][3-(3-Pyridyl)-Ala]-[NH2]] | – | 107% | 99% | – | IC50 [2, 6]: 2.9 nM |
| CNC(=O)[C@H](Cc1cccnc1)NC(=O)[C@H](CCN)NC(=O)[C@@H]1CCC(=O)NCCCC[C@@H]2NC(=O)CC[C@H](NC(=O)[C@H](CCC(N)=O)NC(=O)[C@H](Cc3c[nH]c4ccccc34)NC(=O)CCCNC2=O)C(=O)N[C@@H](Cc2ccc(OCCN)cc2)C(=O)N[C@@H](Cc2ccc3ccccc3c2)C(=O)N[C@@](C)(CC(C)C)C(=O)N1 [Compound 98, K(1c)(6c)^†[4-Aminobutanoyl]WQE(6c)[Y(2-aminoethoxy)][2-Nal][2-Me-Leu]E(1c)[Dab][3-(3-Pyridyl)-Ala]-[NHMe]] | 0.024 nM | – | – | 101% | remaining at 1 h, 10 µM [3]: 88%; remaining at 4 h, 10 µM [3]: 58%; remaining at 1 h, 10 µM [4]: 101%; remaining at 4 h, 10 µM [4]: 96% |
| CNC(=O)[C@H](Cc1cccnc1)NC(=O)[C@H](CCN)NC(=O)[C@@H]1CCC(=O)N[C@H]2CCCCNC(=O)CC[C@H](NC(=O)[C@H](CCC(N)=O)NC(=O)[C@H](Cc3c[nH]c4ccccc34)NC(=O)CNC2=O)C(=O)N[C@@H](Cc2ccc(OCCN)cc2)C(=O)N[C@@H](Cc2ccc3ccccc3c2)C(=O)N[C@@](C)(CC(C)C)C(=O)N1 [Compound 104, [iso-Lys](1c)^†(6c)GWQE(6c)[Y(2-aminoethoxy)][2-Nal][2-Me-Leu]E(1c)[Dab][3-(3-Pyridyl)-Ala]-[NHMe]] | 0.5 nM | 101% | – | – | remaining at 1 h, 10 µM [3]: 106%; remaining at 4 h, 10 µM [3]: 89%; remaining at 1 h, 10 µM [4]: 100%; remaining at 4 h, 10 µM [4]: 106% |
